# Measured values from PMC4833640 (Journal of Medicinal Chemistry, 2016).
# Assay: not given
# Conditions: 24 h incubation, aqueous buffer pH 7.4
row,Compound,detection after incubation in aqueous buffer (stability)
1,"Oc1ccccc1SCc1ccccc1 [Compound 34, 2-(Benzylthio)phenol]",not detected after the 24 h incubation in aqueous buffer

# Assay: Colorimetric hydrogen-bond assay with pyrazinone sensor
# Assay type: physicochemical
# Conditions: blue-shift of λmax of the sensor, compared with carboxylic acid 1
row,Compound,hydrogen-bond (HB) interaction with pyrazinone sensor
1,"c1ccc(CCc2nnn[nH]2)cc1 [Compound 16, 5-Phenethyl-1H-tetrazole]",significantly stronger HB interactions than the corresponding carboxylic acid

# Assay: not given
# Conditions: reason why data were considered unreliable
row,Compound,PAMPA assay observation on the donor plate
1,"Oc1c(F)ccc(Cc2ccccc2)c1F [Compound 33, 3-Benzyl-2,6-difluorophenol]",compound precipitation
2,"Oc1c(F)cc(Cc2ccccc2)cc1F [Compound 32, 4-Benzyl-2,6-difluorophenol]",high nonspecific binding

# Assay: physchem
# Conditions: measured pKa values
row,Compound,pKa
1,"NS(=O)(=O)CCc1ccccc1 [Compound 10, 2-Phenylethane-1-sulfonamide]",> 8
2,"S=c1[nH]c(CCc2ccccc2)no1 [Compound 22, 3-Phenethyl-1,2,4-oxadiazole-5(4H)-thione]",< 4
3,"CC(=O)N(O)CCc1ccccc1 [Compound 3, N-Hydroxy-N-phenethylacetamide]",> 8
4,"O=c1c(O)c(Cc2ccccc2)c1=O [Compound 30, 3-Benzyl-4-hydroxycyclobut-3-ene-1,2-dione]",< 4
5,"CS(=O)(=O)NCCCc1ccccc1 [Compound 11, N-(3-Phenylpropyl)methanesulfonamide]",> 8
6,"CC(=O)NC(=O)NCc1ccccc1 [Compound 15, N-(Benzylcarbamoyl)acetamide]",> 8
7,"O=C(CCc1ccccc1)NO [Compound 2, N-(Hydroxy)-3-phenylpropanamide]",> 8
8,"CONC(=O)CCc1ccccc1 [Compound 4, N-Methoxy-3-phenylpropanamide]",> 8
9,"CC(=O)NOCCc1ccccc1 [Compound 5, N-Phenethoxyacetamide]",> 8
10,"O=c1c(O)c(NCc2ccccc2)c1=O [Compound 31, 3-(Benzylamino)-4-hydroxycyclobut-3-ene-1,2-dione]",< 4
